In patent US12629378B2, “Treatment of infantile hemangioma” (Arkayli Biopharma Inc., priority 2019, dated 2026):
In brackets after ≈: the same amount, converted by molar mass. Values belong to the compound of their own block, whether it stands above or below them.

Legend:
[1] = cited from earlier work; for Half-Life: in vivo; for distribution half-life: delivered intravenously
[2] = Esmolol solubility in various excipients; type: physicochemical
Excerpt: Knowing the solubility of a drug in different excipients and chemical enhancers is important in optimizing the saturation solubility of the drug in topical and transdermal formulations. Here below is a table (Table 1) showing the solubility of esmolol in several excipients and chemical enhancers. The solubility of Esmolol was higher in hydrophilic excipients and lower in the more lipophilic excipients. Several of these compounds were used to prepare the formulations in Example 2, such as the co-enhancing system of oleyl alcohol and propylene glycol.

[3] = cited from earlier work
[4] = children, after an oral dose; cited from earlier work
[5] = cited from earlier work; remark: listed apart in the source
[6] = drop (0.05 mL) of timolol 0.5% solution to the eye of an adult; cited from earlier work
[7] = adults; cited from earlier work
[8] = children with pediatric glaucoma, intraocular; cited from earlier work
[9] = system: beta adrenergic receptors; conditions: times more potent; cited from earlier work
[10] = system: beta adrenergic receptors; conditions: fraction of the potency of Esmolol; cited from earlier work

SMILES: CC(C)(C)NCC(O)COc1cccc2c1CCC(=O)N2 (stereo not shown) [Corteolol]
Half-Life [1]: 6 to 8 h

Sat. Conc. ([2]; Castor Oil (CO)): 23.4 mg/mL | Sat. Conc. ([2]; Cotton seed oil (CSO)): 101.9 mg/mL | Sat. Conc. ([2]; DMSO): 592.1 mg/mL | Sat. Conc. ([2]; Dipropylene Glycol): 257.6 mg/mL | Sat. Conc. ([2]; Ethanol): 310.4 mg/mL | Sat. Conc. ([2]; Glyceryl monooleate (GMO)): 157.3 mg/mL | Sat. Conc. ([2]; Isopropyl myristate (IPM)): 196.2 mg/mL | Sat. Conc. ([2]; Lauroglycol FCC (LG)): 122.2 mg/mL | Sat. Conc. ([2]; Oleic acid (OA)): 56.9 mg/mL | Sat. Conc. ([2]; Oleyl Alcohol): 112.2 mg/mL | Sat. Conc. ([2]; Olive Oil (OO)): 58.1 mg/mL | Sat. Conc. ([2]; PEG-400): 248.6 mg/mL | Sat. Conc. ([2]; Propylene Glycol): 450.7 mg/mL | Sat. Conc. ([2]; Sesame oil (SO)): 56.6 mg/mL | Sat. Conc. ([2]; Transcutol P): 344.5 mg/mL | solubility thermodynamic ([2]; water, read-out: Sat. Conc.): 704 mg/mL (≈ 2380 mM)
SMILES: COC(=O)CCc1ccc(OCC(O)CNC(C)C)cc1 (stereo not shown) [Esmolol, methyl 3-[4-[2-hydroxy-3-(propan-2-ylamino)propoxy]phenyl]propanoate]
distribution half-life [1]: about 2 minutes | Half-Life [1]: 0.15 h

SMILES: CC1(C)OC[C@@H](COC(=O)CCc2ccc(OC[C@@H](O)CNCCNC(=O)N3CCOCC3)cc2)O1 [Landiolol, [(4S)-2,2-dimethyl-1,3-dioxolan-4-yl]methyl 3-[4-[(2S)-2-hydroxy-3-[2-(morpholine-4-carbonylamino)ethylamino]propoxy]phenyl]propanoate]
distribution half-life [1]: about 2 minutes | Half-Life [1]: 0.05 to 0.1 h | LogP [3]: 0.44

SMILES: COCCc1ccc(OCC(O)CNC(C)C)cc1 (stereo not shown) [Metoprolol]
Half-Life [1]: 3 to 7 h

SMILES: CC(C)(C)NCC(O)COc1cccc2c1CC(O)C(O)C2 (stereo not shown) [Nadolol]
Half-Life [1]: 14 to 25 h | LogP [3]: 1

SMILES: C=CCOc1ccccc1OCC(O)CNC(C)C (stereo not shown) [Oxprenolol]
Half-Life [1]: 1 to 2 h | LogP [3]: 2.1

SMILES: CC(C)(C)NC[C@H](O)COc1ccccc1C1CCCC1 [Penbutolol]
Half-Life [1]: 20 h | LogP [3]: 4.15

SMILES: CC(C)NCC(O)COc1cccc2[nH]ccc12 (stereo not shown) [Pindolol]
Half-Life [1]: 3 to 4 h | LogP [3]: 1.75

SMILES: CC(C)NCC(O)COc1cccc2ccccc12 (stereo not shown) [Propranolol]
Half-Life [1]: 4 to 5 h | time of peak effect on blood pressure and heart rate [4]: around 2 hours

SMILES: CC(C)(C)NC[C@H](O)COc1nsnc1N1CCOCC1 [Timolol]
Half-Life [1]: 2.5 to 5 h | plasma samples in which timolol was detected ([5]; 86/92 samples, applied to skin over IH): 93% | plasma level normalized for dose, mean ([5]; applied to skin over IH): 24.1 ± 62.7 ng/mL/mg | plasma level normalized for dose, median ([5]; applied to skin over IH): 3 ng/mL/mg | plasma level normalized for dose, range ([5]; applied to skin over IH): 0.06 to 424 ng/mL/mg | plasma level, median ([5]; applied to skin over IH): 0.98 ng/mL | plasma level, range ([5]; applied to skin over IH): 0.03 to 106 ng/mL | samples with plasma levels >0.2 ng/mL ([5]; applied to skin over IH): 80% | samples between 0.020-0.2 ng/mL ([5]; of 86 samples): 12/86 | subjects with plasma levels ≥10 ng/mL ([5]; similar to intravenous administration): Ten | fraction of each drop systemically absorbed through the ocular mucosa [6]: approximately 80% | plasma concentration demonstrated to have measurable systemic beta-blocking activity [7]: 0.2 ng/mL | LogP [3]: 1.4 | systemic adverse effects (bradycardia, hypoglycemia, bronchial hyperreactivity), share of children [8]: 3-4% | potency compared with propranolol [9]: 4-10 times

SMILES: CC(C)NCC(O)COc1ccc(CCC(=O)O)cc1 (stereo not shown) [inactive metabolite]
potency relative to Esmolol [10]: 1/1500
